Marks after values point to notes of the source that are not given here.
Tested on: Donor 3 GMA T-Cell Lines
Experiment: ATP proliferation assay (CellTiter Glo), Donor 3 GMA T-cell lines, incl. reactivity to non-canonical GA peptides
Assay type: cell-based, human

## glatiramer acetate [COP]
165-B5G, 165-D8G, 165-E7G, 165-F5G, Day 56, 0, 1, 5, 10, 100 μg/mL, GMA and COP responses comparable
  response in proliferation assay: responded well
T-cell line 165-05G, 1 μg/mL antigen, Day 50 of culturing, No Antigen Value 2149
  Proliferation (luminescent ATP assay), Mean: 6791 RLU
T-cell line 165-05G, 3 μg/mL antigen, Day 50 of culturing, No Antigen Value 2149
  Proliferation (luminescent ATP assay), Mean: 42584 RLU
T-cell line 165-05G, 10 μg/mL antigen, Day 50 of culturing, No Antigen Value 2149
  Proliferation (luminescent ATP assay), Mean: 56893 RLU
T-cell line 165-05G, 30 μg/mL antigen, Day 50 of culturing, No Antigen Value 2149
  Proliferation (luminescent ATP assay), Mean: 55001 RLU
T-cell line 165-B2G, 1 μg/mL, Day 40
  Mean, ATP proliferation assay: 3779
T-cell line 165-B2G, 3 μg/mL, Day 40
  Mean, ATP proliferation assay: 11983
T-cell line 165-B2G, line COP 10 μg/mL, footnote: well contained 3 μg/mL COP, Day 40
  Mean, ATP proliferation assay: 10980*
T-cell line 165-B5G, 1 μg/mL antigen, Day 81 of culturing, No Antigen Value 2432
  Proliferation (luminescent ATP assay), Mean: 6275 RLU
T-cell line 165-B5G, 1 μg/mL, Day 40
  Mean, ATP proliferation assay: 3672
T-cell line 165-B5G, 3 μg/mL antigen, Day 81 of culturing, No Antigen Value 2432
  Proliferation (luminescent ATP assay), Mean: 7499 RLU
T-cell line 165-B5G, 3 μg/mL, Day 40
  Mean, ATP proliferation assay: 3673
T-cell line 165-B5G, 10 μg/mL antigen, Day 81 of culturing, No Antigen Value 2432
  Proliferation (luminescent ATP assay), Mean: 10914 RLU
T-cell line 165-B5G, 10 μg/mL, Day 40
  Mean, ATP proliferation assay: 14282
T-cell line 165-B5G, 30 μg/mL antigen, Day 81 of culturing, No Antigen Value 2432
  Proliferation (luminescent ATP assay), Mean: 13974 RLU
T-cell line 165-C4G, 1 μg/mL, Day 40
  Mean, ATP proliferation assay: 3143
T-cell line 165-C4G, 3 μg/mL, Day 40
  Mean, ATP proliferation assay: 3959
T-cell line 165-C4G, line COP 10 μg/mL, footnote: well contained 3 μg/mL COP, Day 40
  Mean, ATP proliferation assay: 3717*
T-cell line 165-C5G, 1 μg/mL, Day 40
  Mean, ATP proliferation assay: 12667
T-cell line 165-C5G, 3 μg/mL, Day 40
  Mean, ATP proliferation assay: 24835
T-cell line 165-C5G, 10 μg/mL, Day 40
  Mean, ATP proliferation assay: 47537
T-cell line 165-C8G, 1 μg/mL, tested with the Donor 3 COP lines of Table 25
  Mean, ATP proliferation assay: 400 RLU
T-cell line 165-C8G, 3 μg/mL, tested with the Donor 3 COP lines of Table 25
  Mean, ATP proliferation assay: 4821 RLU
T-cell line 165-C8G, 10 μg/mL, tested with the Donor 3 COP lines of Table 25
  Mean, ATP proliferation assay: 22961 RLU
T-cell line 165-D8G, 1 μg/mL, Day 40
  Mean, ATP proliferation assay: 8088
T-cell line 165-D8G, 3 μg/mL, Day 40
  Mean, ATP proliferation assay: 8722
T-cell line 165-D8G, 10 μg/mL, Day 40
  Mean, ATP proliferation assay: 28872
T-cell line 165-E7G, 1 μg/mL antigen, Day 81 of culturing, No Antigen Value 2145
  Proliferation (luminescent ATP assay), Mean: 4217 RLU
T-cell line 165-E7G, 1 μg/mL, Day 40
  Mean, ATP proliferation assay: 3794
T-cell line 165-E7G, 3 μg/mL antigen, Day 81 of culturing, No Antigen Value 2145
  Proliferation (luminescent ATP assay), Mean: 5366 RLU
T-cell line 165-E7G, 3 μg/mL, Day 40
  Mean, ATP proliferation assay: 4147
T-cell line 165-E7G, 10 μg/mL antigen, Day 81 of culturing, No Antigen Value 2145
  Proliferation (luminescent ATP assay), Mean: 7619 RLU
T-cell line 165-E7G, 10 μg/mL, Day 40
  Mean, ATP proliferation assay: 12565
T-cell line 165-E7G, 30 μg/mL antigen, Day 81 of culturing, No Antigen Value 2145
  Proliferation (luminescent ATP assay), Mean: 7161 RLU
T-cell line 165-E9G, 1 μg/mL antigen, Day 50 of culturing, No Antigen Value 1742
  Proliferation (luminescent ATP assay), Mean: 1999 RLU
T-cell line 165-E9G, 1 μg/mL, Day 40
  Mean, ATP proliferation assay: 3216
T-cell line 165-E9G, 3 μg/mL antigen, Day 50 of culturing, No Antigen Value 1742
  Proliferation (luminescent ATP assay), Mean: 5538 RLU
T-cell line 165-E9G, 3 μg/mL, Day 40
  Mean, ATP proliferation assay: 5584
T-cell line 165-E9G, 10 μg/mL, Day 40
  Mean, ATP proliferation assay: 25454
T-cell line 165-E9G, 30 μg/mL antigen, Day 50 of culturing, No Antigen Value 1742
  Proliferation (luminescent ATP assay), Mean: 38286 RLU
T-cell line 165-E9G, 10 μpg/mL antigen, Day 50 of culturing, No Antigen Value 1742
  Proliferation (luminescent ATP assay), Mean: 38813 RLU
T-cell line 165-F2G, 1 μg/mL, Day 40
  Mean, ATP proliferation assay: 1700
T-cell line 165-F2G, 3 μg/mL, Day 40
  Mean, ATP proliferation assay: 1332
T-cell line 165-F2G, 10 μg/mL, Day 40
  Mean, ATP proliferation assay: 1554
T-cell line 165-F5G, 1 μg/mL, Day 40
  Mean, ATP proliferation assay: 4332
T-cell line 165-F5G, 3 μg/mL, Day 40
  Mean, ATP proliferation assay: 6099
T-cell line 165-F5G, 10 μg/mL, Day 40
  Mean, ATP proliferation assay: 19498
T-cell line 165-F8G, 1 μg/mL, Day 40
  Mean, ATP proliferation assay: 3690
T-cell line 165-F8G, 3 μg/mL, Day 40
  Mean, ATP proliferation assay: 3184
T-cell line 165-F8G, 10 μg/mL, Day 40
  Mean, ATP proliferation assay: 10663
